Assays:
Assay type in all cases: in vivo
Stellaria media = assay: Pre-emergence herbicidal efficacy, STEME
Summary of the method: (§1)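 Visual percent activity relative to untreated plants (0% = like control, 100% = dead), scored about 3 weeks after treatment under greenhouse conditions.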

Viola tricolor [1] = assay: Pre-emergence herbicidal efficacy, VIOTR
Summary of the method: as §1

Matricaria inodora = assay: Pre-emergence herbicidal efficacy, MATIN
Summary of the method: as §1

Veronica persica [2] = assay: Post-emergence herbicidal efficacy, VERPE
From the text: (§2) ABUTH: Abutilon theophrasti ALOMY: Alopecurus myosuroides AMARE: Amaranthus retroflexus AVEFA: Avena fatua CYPES: Cyperus esculentus ECHCG: Echinochloa crus-galli LOLMU: Lolium multiflorum MATIN: Matricaria inodora PHBPU: Ipomoea purpurea POLCO: Polygonum convolvulus SETVI: Setaria viridis STEME: Stellaria media VERPE: Veronica persica VTOTR: Viola tricolor
(§3) C.2 Post-Emergence Herbicidal Action and Crop Plant Compatibility
(§4) Seeds of monocotyledonous and dicotyledonous weeds and crop plants are placed in sandy loam in plastic or organic planting pots, covered with soil and cultivated in a greenhouse under controlled growth conditions. 2 to 3 weeks after sowing, the test plants are treated at the one-leaf stage. The compounds of the invention, formulated in the form of wettable powders (WP) or as emulsion concentrates (EC), are then sprayed onto the green parts of the plants as aqueous suspension or emulsion with addition of 0.5% additive at a water application rate of […] (converted). After the test plants had been kept in the greenhouse under optimum growth conditions for about 3 weeks, the activity of the preparations is rated visually in comparison to untreated controls. For example, 100% activity=the plants have died, 0% activity=like control plants.

Viola tricolor [3] = assay: Post-emergence herbicidal efficacy, VIOTR
From the text: as §2, §3, §4

Lolium rigidum = assay: Pre-emergence herbicidal efficacy, LOLRI; details: Table B1, application rate 320 g/ha, scored visually after about 3 weeks vs untreated controls
From the text: C.1 Pre-Emergence Herbicidal Action and Crop Plant Compatibility Seeds of monocotyledonous and dicotyledonous weed plants and crop plants are placed in plastic or organic planting pots and covered with soil. The compounds of the invention, formulated in the form of wettable powders (WP) or as emulsion concentrates (EC), are then applied onto the surface of the covering soil as aqueous suspension or emulsion with addition of 0.5% additive at a water application rate of […] (converted). After the treatment, the pots are placed in a greenhouse and kept under good growth conditions for the trial plants. After about 3 weeks, the effect of the preparations is scored visually in comparison with untreated controls as percentages. For example, 100% activity=the plants have died, 0% activity=like control plants. […] Here, for example, compound Nos. I-214 and I-196, when applied pre-emergence, have very good activity (80% to 100% herbicidal activity) against harmful plants such as Abutilon theophrasti, Amaranthus retroflexus, Echinochloa crus-galli, Lolium rigidum, Matricaria inodora, Polygonum convolvulus, Setaria viridis, Stellaria media, Veronica persica and Viola tricolor at an application rate of 0.32 kg of active substance or less per hectare. At the same time, some of the compounds according to the invention leave Gramineae crops such as barley, wheat, rye, millet/sorghum, corn, rice or sugar cane virtually undamaged when applied pre-emergence, even at high active compound dosages. In addition, some substances are also harmless to dicotyledonous crops such as soya, cotton, oilseed rape or sugar beet.

Echinochloa crus-galli = assay: Pre-emergence herbicidal efficacy, ECHCG; details: Table B1, application rate 320 g/ha, scored visually after about 3 weeks vs untreated controls
From the text: (§5) C.1 Pre-Emergence Herbicidal Action and Crop Plant Compatibility
(§6) Seeds of monocotyledonous and dicotyledonous weed plants and crop plants are placed in plastic or organic planting pots and covered with soil. The compounds of the invention, formulated in the form of wettable powders (WP) or as emulsion concentrates (EC), are then applied onto the surface of the covering soil as aqueous suspension or emulsion with addition of 0.5% additive at a water application rate of […] (converted). After the treatment, the pots are placed in a greenhouse and kept under good growth conditions for the trial plants. After about 3 weeks, the effect of the preparations is scored visually in comparison with untreated controls as percentages. For example, 100% activity=the plants have died, 0% activity=like control plants.
as §2

Polygonum convolvulus = assay: Pre-emergence herbicidal efficacy, POLCO; details: Table B1, application rate 320 g/ha, scored visually after about 3 weeks vs untreated controls
From the text: as §5, §6, §2

Amaranthus retroflexus = assay: Pre-emergence herbicidal efficacy, AMARE; details: scored visually after about 3 weeks vs untreated controls
From the text: as §5, §6, §2

Setaria viridis = assay: Pre-emergence herbicidal efficacy, SETVI; details: Table B1, application rate 320 g/ha, scored visually after about 3 weeks vs untreated controls
From the text: as §5, §6, §2

Veronica persica [4] = assay: Pre-emergence herbicidal efficacy, VERPE; details: scored visually after about 3 weeks vs untreated controls
From the text: as §5, §6, §2

Abutilon theophrasti = assay: Pre-emergence herbicidal efficacy, ABUTH; details: Table B1, application rate 320 g/ha, scored visually after about 3 weeks vs untreated controls
From the text: as §5, §6, §2

[5] = application rate 320 g/ha, scored visually after about 3 weeks
[6] = application rate 1280 g/ha, rated visually after about 3 weeks
[7] = application rate 320 g/ha, rated visually after about 3 weeks (Table B7)
[8] = Table B1, application rate 320 g/ha, scored visually after about 3 weeks vs untreated controls
[9] = Table B1, application rate 320 g/ha
[10] = Table B2, application rate 320 g/ha, scored visually after about 3 weeks vs untreated controls
[11] = Table B2, application rate 320 g/ha

| SMILES | Herbicidal efficacy against STEME (Stellaria media; [5]) [%] | Herbicidal efficacy against VIOTR (Viola tricolor [1]; [5]) [%] | Herbicidal efficacy against MATIN (Matricaria inodora; [5]) [%] | Herbicidal efficacy against VERPE (Veronica persica [2]; [6]) [%] | Herbicidal efficacy against VIOTR (Viola tricolor [3]; [6]) [%] | Herbicidal efficacy against VERPE (Veronica persica [2]; [7]) [%] | Herbicidal efficacy against VIOTR (Viola tricolor [3]; [7]) [%] | Herbicidal efficacy against STEME (Stellaria media; [8]) [%] | Herbicidal efficacy against LOLRI (Lolium rigidum) [%] | Herbicidal efficacy against VIOTR (Viola tricolor [1]; [8]) [%] | Herbicidal efficacy against MATIN (Matricaria inodora; [8]) [%] | Herbicidal efficacy against ECHCG (Echinochloa crus-galli) [%] | Herbicidal efficacy against POLCO (Polygonum convolvulus) [%] | Herbicidal efficacy against AMARE (Amaranthus retroflexus; [9]) [%] | Herbicidal efficacy against SETVI (Setaria viridis) [%] | Herbicidal efficacy against VERPE (Veronica persica [4]; [9]) [%] | Herbicidal efficacy against ABUTH (Abutilon theophrasti) [%] | further results |
| --- | --- | --- | --- | --- | --- | --- | --- | --- | --- | --- | --- | --- | --- | --- | --- | --- | --- | --- |
| CC(=O)N1CCn2nc(NC3CCOc4ccccc43)nc2C1 (stereo not drawn) [Example I-068] | 100 | 100 | 100 | 90 | 80 |  |  |  |  |  |  |  |  |  |  |  |  |  |
| O=S(=O)(C1CC1)N1CCn2nc(NC3CCCc4ccccc43)nc2C1 (stereo not drawn) [Example I-087] | 100 | 100 | 100 | 90 | 80 | 80 | 80 |  |  |  |  |  |  |  |  |  |  |  |
| Cc1ccc2c(c1)C(Nc1nc3n(n1)CCN(C(=O)c1cccc(Cl)c1)C3)C(C)C2 (stereo not drawn) [Example I-170] | 100 | 100 | 90 |  |  | 90 | 80 |  |  |  |  |  |  |  |  |  |  |  |
| Cc1ccc2c(c1)[C@H](Nc1nc3n(n1)CCN(S(=O)(=O)Cc1ccccc1)C3)[C@@H](C)C2 [Example I-194] | 100 | 100 | 90 |  |  | 100 | 80 |  |  |  |  |  |  |  |  |  |  |  |
| Cc1ccc2c(c1)[C@H](Nc1nc3n(n1)CCN(S(=O)(=O)c1ccccc1Cl)C3)[C@@H](C)C2 [Example I-195] | 100 | 100 | 90 | 90 | 90 | 80 | 80 |  |  |  |  |  |  |  |  |  |  |  |
| Cc1ccc2c(c1)[C@H](Nc1nc3n(n1)CCN(S(=O)(=O)Cc1ccccc1)C3)CCC2 [Example I-202] | 100 | 100 | 90 |  |  | 80 | 80 |  |  |  |  |  |  |  |  |  |  |  |
| O=C1CCn2nc(NC3CCc4ccccc43)nc2N1CC1CC1 (stereo not drawn) [Example I-219] | 100 | 100 | 100 | 90 | 80 |  |  |  |  |  |  |  |  |  |  |  |  |  |
| [O-][S+]1CCCCn2nc(NC3CCOc4ccccc43)nc21 (stereo not drawn) [Example I-247] | 100 | 100 | 100 | 80 | 80 |  |  |  |  |  |  |  |  |  |  |  |  |  |
| Cc1ccc2c(c1)C(Nc1nc3n(n1)CCC(=O)N3CC1CCCCC1)CC2 (stereo not drawn) [Example I-256] |  |  |  |  |  |  |  | 100 | 80 | 100 | 100 | 90 | 100 | 100 | 100 | 100 | 100 |  |
| O=C1CCn2nc(NC3CCOc4ccccc43)nc2N1Cc1cccc(C(F)(F)F)c1 (stereo not drawn) [Example I-273] | 100 | 100 | 80 | 100 | 90 |  |  |  |  |  |  |  |  |  |  |  |  |  |
| Cc1ccc2c(c1)C(Nc1nc3n(n1)CCCN3S(=O)(=O)C1CC1)CCC2 (stereo not drawn) [Example I-327] | 100 | 100 | 100 |  |  | 90 | 80 |  |  |  |  |  |  |  |  |  |  | Herbicidal efficacy against STEME (Stellaria media; [10]): 100%; Herbicidal efficacy against VIOTR (Viola tricolor [1]; [10]): 100%; Herbicidal efficacy against MATIN (Matricaria inodora; [10]): 100%; Herbicidal efficacy against AMARE (Amaranthus retroflexus; [11]): 100%; Herbicidal efficacy against VERPE (Veronica persica [4]; [11]): 100% |
| Cc1ccc2c(c1)[C@H](Nc1nc3n(n1)CCCS3)[C@@H](C)C2 [Example I-348] |  |  |  |  |  |  |  | 100 | 80 | 100 | 100 | 100 | 100 | 100 | 100 | 100 | 100 |  |
| Cc1ccc2c(c1)[C@H](Nc1nc3n(n1)CCCCS3(=O)=O)CC2 [Example I-365] |  |  |  |  |  |  |  | 100 | 100 | 100 | 100 | 90 | 100 | 100 | 100 | 100 | 100 |  |
| Cc1ccc2c(c1)[C@H](Nc1nc3n(n1)CCCC[S+]3[O-])CC2 (stereo partly drawn) [Example I-370] |  |  |  |  |  |  |  | 100 | 100 | 100 | 100 | 100 | 100 | 100 | 100 | 100 | 100 |  |
| Cc1ccc2c(c1)C(Nc1nc3n(n1)CCCC[S+]3[O-])C(C)C2 (stereo not drawn) [Example I-371] |  |  |  |  |  |  |  | 100 | 100 | 100 | 100 | 100 | 100 | 100 | 100 | 100 | 100 |  |
| Cc1ccc2c(c1)[C@H](Nc1nc3n(n1)CCCS3)CCO2 [Example I-376] |  |  |  |  |  |  |  | 100 | 100 | 100 | 100 | 100 | 100 | 100 | 100 | 100 | 100 |  |
| Cc1ccc2c(c1)[C@H](Nc1nc3n(n1)CCCC[S+]3[O-])CCO2 (stereo partly drawn) [Example I-380] |  |  |  |  |  |  |  | 100 | 80 | 100 | 100 | 100 | 100 | 100 | 100 | 100 | 100 |  |
